Results on one compound are retold here after patent US20260284016A1, “COMBINATIONS AND METHODS FOR ENHANCING CHECKPOINT INHIBITOR THERAPIES IN CANCER TREATMENT” (PURDUE RESEARCH FOUNDATION, priority 2004, published 2026).

The subject of one data set is BM-induced mice. The method, then: Studies were also performed to determine if macrophages in pulmonary fibrotic lungs might be specifically targeted with folate-linked drugs in vivo. […] (The BM model is widely regarded to be helpful in terms of enabling mechanistic investigations relevant to fibrogenesis in an in vivo context.)
More specifically, eight-week-old C57BL6 male mice from Charles River (average weight 22 g to 25 g) were housed under pathogen-free conditions at room temperature (22° C.) under a 12 hours light-dark cycle. Mice were placed on a folate deficient chow (Envigo Teklad Global Rat Food Pellets) for 1 week prior to the BM or PBS instillation. Fresh water and folate-deficient diet were freely available. All animal procedures were approved by the Purdue Animal Care and Use Committee in accordance with National Institute of Health guidelines.
Thereafter, the mice were anesthetized with ketamine/xylazine and the necks of the mice were shaved using hair remover lotion and then sterilized with 70% alcohol. A small incision was made on the neck to visualize the trachea. Mice were positioned at a 75-degree angle and injected intratracheally with 100 μL sterile PBS or BM (Cayman Chemicals, Ann Arbor, MI; #13877) dissolved in PBS (0.75 mg/kg) using a 1 cc syringe with 26 G needle. Body weights were monitored every other day throughout the experiment.
Lobes of the right lung collected above were weighed, placed in a pressure-tight vial (Supelco Inc., Bellefonte, PA; #27003), and hydrolyzed with 6N HCl (10 ml/g, v/w) in a sand bath at 120° C., for 3.5 hours. The hydrolyzed solution was cooled at 4° C., for 15 min and transferred to a 1.5 ml Eppendorf tube prior to centrifugation at 12,000 rcf for 15 min at 4° C. Supernatant was carefully collected, aliquoted and used for hydroxyproline (HYP) analysis.
For the subsequent HYP analysis, 10 μl of sample was transferred into a 96-well plate and neutralized with 10 μl of 5.3 M sodium hydroxide solution. Isopropanol ([…]) was then added to each well followed by 20 μl of oxidation buffer and the mixture was incubated on a shaker at room temperature for 5 min. Analytical reagent (260 μl) was added, and the plate was incubated on a shaker at room temperature for 30 seconds and incubated immediately at 60° C., for 25 min. The absorbance was measured at 560 nm (A560) within 15 min. All reagents were prepared according to a previously reported protocol.
For histological analysis of the lung sections, fixed lungs (see above) were embedded in paraffin, sectioned and stained with hematoxylin-eosin (H&E), Masson's trichrome or F3 (anti-mouse FRβ antibody). Tissue sections were examined in a blinded manner by a licensed pathologist. More than 90×10^6 cells were quantified per section using Aperio-Image Scope (Leica Biosystems, Wetzlar, DE).
For this, BM-treated mice were intravenously injected every other day beginning on day 10 with either vehicle (3% DMSO in PBS) or Compound 1B (see FIG. 8A). […] In BM-induced experimental pulmonary fibrosis in mice, inflammation is known to persist for about 9-10 days after BM installation. Because, inflammation to fibrosis switch happens in this model approximately day 9 to day 14, and anti-inflammatory markers start appearing at about day 10, dosing began on day 10 (FIG. 8A).
Two doses were given every other day till day 21. The individual doses on a day are separated by 6 hours to prevent any “tolerance” to TLR agonists. Mice were then sacrificed on day 21 and subjected immediately to bronchoalveolar lavage followed by resection of the lungs for immunohistochemistry and quantitation of collagen and hydroxyproline.

Data set [1] can be described thus: Stability during incubation in culture media. The class given is physicochemical. Particulars: 37° C. in the culture media, 48 hours. The protocol: Indeed, Compound 1B retained the original structure after 48 hours incubation.

The structures appear in SMILES notation.

Method for healthy mice: (FIGS. 20A-C) Measurement of plasma IL-6 (FIG. 20A), IFNα (FIG. 20B) and TNFα (FIG. 20C) (n=3). […] The effect of drug concentration on plasma levels of IL-6 (FIG. 20D), IFNα (FIG. 20E), and TNFα (FIG. 20F) was determined at 1.5 hours, 1 hour, or 1 hour after treatment, respectively (n=2) (FIG. 20G).
The effect of drug on plasma levels of IL-6 (FIG. 23C) and TNFα (FIG. 23D) was determined at 1 hour or 1.5 hours after treatment.

Regarding `CCCCc1nc2c(N)nc3ccccc3c2n1CC(C)(C)OC(=O)OCCSSCC(NC(=O)CCC(NC(=O)c1ccc(NCc2cnc3nc(N)[nH]c(=O)c3n2)cc1)C(=O)O)C(=O)O` (stereo not drawn) [Compound 1B], the “order of efficacy on lung hydroxyproline content” value with BM-induced mice (0, 1, 3, or 10 nmol/mouse, day 21) was 10 nmol/mouse>3 nmol/mouse>1 nmol/mouse>0 nmol/mouse. For the same compound, the “lung histology with rising dose” value in the data set on BM-induced mice (0, 1, 3, or 10 nmoles) is “lung histology improved”. Further, in the data set on BM-induced mice (0, 1, 3, or 10 nmoles every other day from day 10), the “weight loss across doses” value is given as “no difference in weight loss”. Besides, the “response in lung sections (DAPI, anti-F4/80, anti-CD206 staining)” value with BM-induced mice (healthy and fibrotic lungs) was “robust anti-fibrotic and proinflammatory response”. Moreover, the “collagen stain, Masson's trichrome” value in the data set on BM-induced mice (tail vein injection, treatment from day 10) is “strongly suppressed”. Besides, in the data set with BM-induced mice (treatment from day 10), the “lung architecture, H&E staining” value was “resembles that of healthy mice”. Further, the “systemic cytokine release (plasma IL-6, IFNα, TNFα)” value with healthy mice (10 nmol tail vein) was “does not”. Moreover, the “inflammatory cytokine release, dose comparison” value in the data set on healthy mice (plasma at 1 or 1.5 hours, varied dose) was “stimulates less inflammatory cytokine release than half the dose of Compound 1A”. Further, the stability during incubation entry in data set [1] is listed as “remained stable”.
